Results on 4 compounds are retold here after article PMC10723784, “Investigation of the cytotoxicity induced by cannabinoids on human ovarian carcinoma cells” (Pharmacology Research & Perspectives, 2023).

The subject of series [1] is A2780/CP70 cells. The series is described as follows: MTT cytotoxicity assay, A2780/CP70 cells. The following applies: for Combination index (CI), carboplatin + CBD: A2780/CP70, 100 nM CBD; for Combination index (CI), carboplatin + CBG: A2780/CP70, 100 nM CBG. Here is the method: (§1) In separate experiments, cells were seeded in 96‐well plates and after 24 h elapsed they were exposed to different concentrations of drugs or vehicle. Cells were then left in the incubator for a further 24 or 48 h. Then the media was replaced with fresh media containing no drug and the cells were left in the incubator. MTT assay was performed after 96 h elapsed from the time when cells were exposed to drugs or vehicle.
(§2) The cells were then left in the incubator and MTT assay was performed 96 h following the initial exposure to the drugs.
(§3) The selective index (SI) is the ratio of mean IC50 values for non‐cancer cells to cancer cells. […] While the isobologram can be considered predominantly as a graphical depiction of drug interactions, the combination index (CI) is a quantitative representation. It relates the actual drug concentration in the combination to the concentration of the single drug that achieves the same effect. […] Here, CI analysis was used to investigate combinations at 50% cytotoxicity. To this end the IC50 of the viability dose–response curves were determined by non‐linear regression curve fit analysis (GraphPad Prism, v5.00).
(§4) CIA+B is the combination index of A and B; C A the concentration of A applied in combination; C B the concentration of B applied in combination; IC50 A the IC50 of drug A when it was applied individually to the cells; IC50 B = IC50 of drug B when it was applied individually to the cells.

Series [2] concerns A2780 cells. Put plainly: MTT cytotoxicity assay, A2780 cells. The following applies: for Combination index (CI), carboplatin + CBD: A2780, 100 nM CBD. Here is the method:
as §1, §2, §3, §4

Series [3] concerns A2780/CP70 cells. The series is described as follows: Mitochondrial membrane potential assay (JC-1), A2780/CP70 cells. It is filed as cell-based, human. The following applies: A2780/CP70, 10-50 μM, 24 h, dose-dependent. Here is the method: (§5) The mitochondrial membrane potential assay was performed to detect the loss in mitochondrial potential (de‐polarization), which is a vital step in apoptosis.[36] Cells were seeded in T25 flasks at 4 × 10^5 cells per flask and were incubated for 48 h or until they reached confluency. After the incubation time elapsed, drugs at concentrations of 10, 30, and 50 μM or vehicle were added to the flasks and further incubated for 24 h. After 24 h elapsed, the cells were harvested and suspended in PBS. Cell viability and number were determined by the cell viability assay using via1 cassettes on NC‐3000 system. The samples were diluted in PBS to 1 × 10^6 cells/mL and 2.5 μg/mL of JC‐1 dye was added to each sample. JC‐1 is a […] dye, which stains as fluorescent red as it aggregates in the mitochondrial matrix. In the absence of mitochondrial membrane potential, JC‐1 localizes in the cytosol in its fluorescent green form. Following the addition of JC‐1, the cells were incubated for 10–30 min at 37°C. […] 12.5 μL of samples were loaded on to an A‐8 slide and were analyzed using the NC‐3000 image cytometry. The degree of apoptosis (in proportional to the loss in mitochondrial membrane potential) was measured using a scatter plot of JC‐1 red fluorescence versus JC‐1 green fluorescence.

Series [4] is described as follows: MTT cytotoxicity assay, non-cancer ARPE19 cells. The conditions noted are these: human, ARPE19 non-cancer retinal pigment cells.
Experimental: (§9) Human ovarian carcinoma cells, A2780 (sensitive to chemotherapeutics), A2780/CP70 (resistant to chemotherapeutics), and non‐cancerous cells including PNT2 (normal prostate epithelial cell line), and/or ARPE19 (human retinal pigment cell line) were maintained according to the ATCC and ECACC guidelines.
(§10) In vitro chemosensitivity assays were performed using the MTT assay as previously described.[32], [33] Briefly, at 70% confluency, cells were seeded in 96‐well plates at a density of 2000 cells/well. […] After the allocated contact time had elapsed, the media was removed and 0.5% (w/v) MTT solution diluted in complete media (200 μL) was added to each well. Following a 4 h incubation, the supernatants were removed, and the formazan crystals were dissolved in dimethylsulfoxide (150 μL). The absorbance was read at 540 nm on a Tecan Infinite 50 plate UV reader.
In series [5] the test system is caspase 3/7 activity in A2780/CP70 cells. The series is described as follows: Caspase 3/7 assay, A2780/CP70 cells. The conditions noted are these: A2780/CP70, 24 h contact time, dose-dependent, significant above 10 μM. It is filed as cell-based, human. How it is done:
(§6) Sensolyte homogenous caspase 3/7 assay kit was used to determine the caspase activity in ovarian cancer cells when treated with CBG. Cells were seeded in 96‐well plate at 6 × 10^3 cells per well and were incubated for 24 h. CBG was added in concentrations of 10, 20, 30, and 50 μM and incubated for a further 24 h. After the incubation time elapsed, the media was removed and replaced with 150 μL/well of fresh complete media. Caspase 3/7 solution was prepared by diluting the caspase substrate 1:100 with DTT‐containing assay buffer. 50 μL/well caspase substrate was added to the plates, and the cells were incubated for 30 min. Ac‐DEVD‐AMC serves as the fluorogenic indicator for assaying caspase‐3/7 activity. Ac‐DEVD‐AMC generates the AMC fluorophore in the presence of caspase 3/7, which produces bright blue fluorescence. The fluorescence was measured by the FLOUstar OPTIMA plate reader with the excitation at 354 nm and emission at 442 nm.
(§7) The level of caspase 3/7 was also determined using Apotox‐Glo Triple assay. Cells were seeded and drugs were added as described above in Section 2.6.1. After 24 h incubation, caspase 3/7 reagent was prepared by mixing caspase buffer and substrate and 100 μL of reagent was added to each well for 30 min incubation at room temperature. […] The luminescence was measured by the FLOUstar OPTIMA plate reader.

For series [6], the system named is A2780 cells. The series is described as follows: Cell cycle analysis (DAPI, NC-3000), A2780 cells. It counts as cell-based, human. The conditions noted are these: 48 h. How it is done: (§8) Cells were seeded in T25 flasks at 4 × 10^5 cells per flask and were incubated for 48 h or until they reached confluency. […] After the incubation time elapsed cells were suspended in PBS with a density closer to 1 × 10^6cells/mL. The cells were washed twice with 1× PBS before the addition of 250 μL of lysis buffer (solution 10) supplemented with 10 μg/mL DAPI (solution 12) was added to the samples and incubated for 5 min at 37°C. After incubation, 250 μL of stabilization buffer (solution 11) was added. 12.5 μL of samples were loaded on to an A‐8 slide and were analyzed using the NC‐3000 system.

Series [7] in a line: MTT cytotoxicity assay, non-cancer PNT2 cells. The conditions noted are these: human, PNT2 normal prostate epithelial cells.
Experimental: as §9, §10
For series [8] the following is noted: high doses such as 1500 mg/day; cited from earlier work.
The subject of series [9] is A2780/CP70 cells. The series is described as follows: Cell cycle analysis (DAPI, NC-3000), A2780/CP70 cells. The following applies: 48 h. It is filed as cell-based, human. How it is done: as §8
Series [10] deals with A2780 cells. Put plainly: Mitochondrial membrane potential assay (JC-1), A2780 cells. It is filed as cell-based, human. The conditions noted are these: A2780, 10-50 μM, 24 h, dose-dependent. How it is done: as §5
Series [11] has as its system caspase 3/7 activity in A2780 cells. The series is described as follows: Caspase 3/7 assay, A2780 cells. It counts as cell-based, human. The conditions noted are these: A2780, 24 h contact time, dose-dependent, significant above 10 μM. Here is the method:
as §6, §7

Each structure is given as a SMILES string. Several values for one entry are separate records, joined by “and”; a condition that tells them apart may be missing. Equal entries are not always repeated. Where two headings read alike, the source gives them in different places.

Regarding `COc1ccc(C(=O)c2c(C)n(CCN3CCOCC3)c3cc(I)ccc23)cc1` [AM630], the “Concentrations at which the antagonist alone induced cytotoxicity” value in series [1] (A2780/CP70, antagonist alone) is reported as “higher than 1 μM”; in [2] (A2780, antagonist alone) it was “higher than 1 μM”.
As to `C=C(C)[C@@H]1CCC(C)=C[C@H]1c1c(O)cc(CCCCC)cc1O` [CBD, cannabidiol], the “Percentage of apoptotic cells (loss of mitochondrial membrane potential)” value in [3] and in series [10] was “induced an increase in the percentage of apoptotic cells” in each case. The results for the IC50 at 24 h in series [4] and in series [7] were 25.3 ± 1.8 µM and 40.6 ± 2.3 µM, respectively. Moreover, the figures for the IC50 at 48 h in series [4] and in [7] were 14.4 ± 0.9 µM and 17.7 ± 2.4 µM, respectively. Moreover, the IC50 at 72 h turned out to be 13 µM in series [4] and 17.2 ± 0.6 µM in series [7]. The IC50 at 96 h in series [4] worked out at 11.7 ± 1.2 µM; in [7] it was 14.4 ± 1.6 µM. Also, the “Caspase 3/7 activity” value in series [5] and in series [11] was “increased the caspase 3/7 activity” in each case. Also, the “Cells in G0/G1 phase” value in series [6] (A2780, 10 μM) stood at 81.4 ± 1.3%; in series [6] (A2780, 30 μM), 85 ± 1.5%; in series [6] (A2780, 50 μM) it was 61.6 ± 1.4%; in [9] (A2780/CP70, 10 μM), 77.4 ± 1.3%; in series [9] (A2780/CP70, 30 μM) it was 85.1 ± 1.1%; in series [9] (A2780/CP70, 50 μM), 64.9 ± 0.9%. Also, the “Cells in S phase” value in series [6] (A2780, 30 μM) is given as 6 ± 1.5%. For the same compound, the “Cells in subG1 phase” value in series [6] (A2780, 50 μM) came to 11.1 ± 1.0%; in series [9] (A2780/CP70, 50 μM) it was 6 ± 0.9%. For the same compound, in series [8], the Tolerability in humans entry is “well tolerated”. Further, the Selectivity index in series [1] was 1.57 and 1.28 and 1.78 and 2.02 and 2.49 and 1.52 and 2.35 and 2.48. Also, the IC50 in series [1] (Homo sapiens, A2780/CP70, 24 h, read-out: IC50 cytotoxicity) is 16.1 ± 0.6 µM; in series [1] (Homo sapiens, A2780/CP70, 48 h, read-out: IC50 cytotoxicity), 11.2 ± 0.7 µM; in series [1] (Homo sapiens, A2780/CP70, 72 h, read-out: IC50 cytotoxicity), 7.3 ± 0.4 µM; in series [1] (Homo sapiens, A2780/CP70, 96 h, read-out: IC50 cytotoxicity), 5.8 ± 0.8 µM; in series [2] (Homo sapiens, A2780, 24 h, read-out: IC50 cytotoxicity), 12.3 ± 0.7 µM; in series [2] (Homo sapiens, A2780, 48 h, read-out: IC50 cytotoxicity), 6.8 ± 1.1 µM. In addition, the IC50 in [2] (Homo sapiens, A2780, 72 h, read-out: IC50 cytotoxicity) was determined as 4.5 ± 0.1 µM; in series [2] (Homo sapiens, A2780, 96 h, read-out: IC50 cytotoxicity), 3.5 ± 0.2 µM. The Cytotoxicity result in series [2] (human) is reported as “approximately 90%”.
Take `N.N.O=C([O-])C1(C(=O)[O-])CCC1.[Pt+2]` [carboplatin]: the “Combination index (CI), carboplatin + CBD” value came out at 0.85 in series [1] (24 h); 0.78 in series [1] (48 h); 0.8 in series [1] (72 h); 0.57 in series [1] (96 h); 0.36 in [2] (24 h, at 50% cytotoxicity); 0.17 in series [2] (48 h, at 50% cytotoxicity). For the same compound, the “Combination index (CI), carboplatin + CBD” value is 0.15 in series [2] (72 h, at 50% cytotoxicity) and 0.096 in [2] (96 h, at 50% cytotoxicity). Also, the “Combination index (CI), carboplatin + CBG” value in series [1] (48 h) was 0.78; in series [1] (72 h) it was 0.71; in series [1] (96 h), 0.65; in [2] (A2780, 100 nM CBG, 96 h, at 50% cytotoxicity), 0.55. Also, the IC50 in series [1] (read-out: IC50 cytotoxicity, recovery, A2780/CP70, 24 h exposure then drug washed out, MTT at 96 h) was 66.5 ± 3.4 µM; in series [1] (read-out: IC50 cytotoxicity, recovery, A2780/CP70, 48 h exposure then drug washed out, MTT at 96 h) it was 48.7 ± 0.4 µM; in series [1] (read-out: IC50 cytotoxicity, recovery, A2780/CP70, 72 h exposure then drug washed out, MTT at 96 h) it was 45.5 ± 2.6 µM; in [1] (read-out: IC50 cytotoxicity, A2780/CP70, 24 h contact time, MTT) it was > 100 µM; in series [1] (read-out: IC50 cytotoxicity, A2780/CP70, 48 h contact time, MTT), > 100 µM; in series [1] (read-out: IC50 cytotoxicity, A2780/CP70, 72 h contact time, MTT) it was 48 ± 1.9 µM. In addition, the IC50 in series [1] (read-out: IC50 cytotoxicity, A2780/CP70, 96 h contact time, MTT) is 44.9 ± 3.5 µM; in series [2] (read-out: IC50 cytotoxicity, recovery, A2780, 24 h exposure then drug washed out, MTT at 96 h) it was 7.9 ± 0.5 µM; in [2] (read-out: IC50 cytotoxicity, recovery, A2780, 48 h exposure then drug washed out, MTT at 96 h), 4.7 ± 0.2 µM; in series [2] (read-out: IC50 cytotoxicity, recovery, A2780, 48 h exposure then drug washed out, MTT at 96 h, listed as Carboplatin), 4.8 ± 0.2 µM; in series [2] (read-out: IC50 cytotoxicity, recovery, A2780, 72 h exposure then drug washed out, MTT at 96 h), 2.6 ± 0.5 µM; in series [2] (read-out: IC50 cytotoxicity, A2780, 24 h contact time, MTT), > 100 µM. Further, the half-inhibitory concentration (IC50) in series [2] (read-out: IC50 cytotoxicity, A2780, 48 h contact time, MTT) is 17.3 ± 0.6 µM; in [2] (read-out: IC50 cytotoxicity, A2780, 72 h contact time, MTT) it was 4.3 ± 0.7 µM; in [2] (read-out: IC50 cytotoxicity, A2780, 96 h contact time, MTT), 2.57 µM and 2.5 µM and 2.6 µM; in series [2] (read-out: IC50 cytotoxicity, A2780, 96 h contact time, MTT, listed as Carboplatin) it was 2.6 ± 0.3 µM.
Regarding `Cc1c(C)c2c(c(C)c1O)CC[C@@](C)(CCC[C@H](C)CCC[C@H](C)CCCC(C)C)O2` [α‐tocopherol], in series [2] (alone up to 100 μM, preliminary experiments, cell line not named (A2780 and A2780/CP70 tested)), the “Effect on viability of the cells when used alone” value is “did not compromise the viability of the cells”.
